Assay results reported in patent US7563910B2, “Heterocyclic cannabinoid receptor antagonists” (Hoffmann-La Roche Inc., priority 2004, dated 2009).
pIC50: −log10 of the molar value.

Experiments:
[1] = biological target: T1, human cannabis CB1 receptor (Homo sapiens, UniProt P21554); assay: Affinity for cannabinoid CB1 receptors, [3H]-CP-55,940 radioligand binding on HEK cell membranes; details: affinity for the CB1 receptor
T1 construct: expressed in transfected cells; host or cells: human embryonic kidney (HEK) cells, transient, Semliki Forest Virus system; membrane preparation
T1 sequence (P21554 whole entry): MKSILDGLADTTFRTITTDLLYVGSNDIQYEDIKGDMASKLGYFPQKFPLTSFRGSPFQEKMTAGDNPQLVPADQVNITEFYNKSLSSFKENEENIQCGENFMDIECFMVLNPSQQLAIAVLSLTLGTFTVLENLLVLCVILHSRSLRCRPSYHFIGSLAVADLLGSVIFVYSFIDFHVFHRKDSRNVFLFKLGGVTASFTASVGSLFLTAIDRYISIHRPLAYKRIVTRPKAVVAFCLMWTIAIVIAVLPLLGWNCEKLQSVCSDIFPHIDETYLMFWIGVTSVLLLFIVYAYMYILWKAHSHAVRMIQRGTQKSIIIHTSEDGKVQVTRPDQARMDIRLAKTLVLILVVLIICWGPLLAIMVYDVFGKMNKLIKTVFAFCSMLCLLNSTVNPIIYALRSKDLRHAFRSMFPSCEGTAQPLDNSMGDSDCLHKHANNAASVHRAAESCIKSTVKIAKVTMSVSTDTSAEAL
Description: The affinity of the compounds of the invention for cannabinoid CB1 receptors was determined using membrane preparations of human embryonic kidney (HEK) cells in which the human cannabis CB1 receptor is transiently transfected using the Semliki Forest Virus system in conjunction with [3H]-CP-55,940 as radioligand. After incubation of a freshly prepared cell membrane preparation with the [3H]-ligand, with or without addition of compounds of the invention, separation of bound and free ligand was performed by filtration over glassfiber filters. Radioactivity on the filter was measured by liquid scintillation counting. The affinity of the compounds of the invention for cannabinoid CB2 receptors was determined using membrane preparations of human embryonic kidney (HEK) cells in which the human cannabis CB2 receptor is transiently transfected using the Semliki Forest virus system in conjunction with [3H]-CP-55,940 as radioligand. After incubation of a freshly prepared cell membrane preparation with the [3H]-ligand, with or without addition of compounds of the invention, separation of bound of bound and free ligand was performed by filtration over glassfiber filters. Radioactivity on the filter was measured by liquid scintillation counting. The cannabinoid CB1 antagonistic activity of compounds of the invention was determined by functional studies using CHO cells in which human cannabinoid CB1 receptors are stably expressed (see M. Rinaldi-Carmona et. al., J. Pharmacol. Exp. Ther. 278 (1996) 871). The stable expression of the human cannabinoid receptor in cell systems was first described in Nature 1990, 346, 561-564 (CB1) and Nature 1993, 365, 61-65 (CB2) respectively. Adenylyl cyclase was stimulated using forskolin and measured by quantifying the amount of accumulated cyclic AMP. […]
The compounds of formula (I) show an excellent affinity for the CB1 receptor, determined with the experimental conditions described in Devane et. al. Mol. Pharmacol. 34 (1988) 605-613. […]

[2] = 10 and 20 mg daily, compared to placebo; cited from earlier work
[3] = wild-type versus CB1 receptor knockout mice; cited from earlier work

Cc1c(C(=O)NC2CCCCC2)cc(-c2cc(C(F)(F)F)ccc2C(F)(F)F)n1C[C@H]1CCCO1 [Example 23, 5-(2,5-Bis-trifluoromethyl-phenyl)-2-methyl-1-[(R)-1-(tetrahydro-furan-2-yl)methyl]-1H-pyrrole-3-carboxylic acid cyclohexylamide]
pIC50 [1]: 8.10

Cc1c(C(=O)NC2CCCCC2)cc(-c2ccccc2OC(F)(F)F)n1CC1COCCO1 (racemic) [Example 10, (rac) 1-[1,4]Dioxan-2-ylmethyl-2-methyl-5-(2-trifluoromethoxy-phenyl)-1H-pyrrole-3-carboxylic acid cyclohexylamide]
pIC50 [1]: 7.12

Cc1c(C(=O)NN2CCCCC2)nn(-c2ccc(Cl)cc2Cl)c1-c1ccc(Cl)cc1 [SR 141716]
body weight [2]: significantly reduced body weight | food intake [3]: reduces food intake in wild-type but not knockout mice

Cc1c(C(=O)NN2CCCCC2)nc(-c2ccc(OC(F)(F)F)cc2)n1CC1CCCCO1 (centres unmarked) [Example 1, 5-Methyl-1-(tetrahydro-pyran-2-ylmethyl)-2-(4-trifluoromethoxy-phenyl)-1H-imidazole-4-carboxylic acid piperidin-1-ylamide]
pIC50 [1]: 6.92
